Reference: publication PMC9325861, “Mouse precision-cut liver slices as an ex vivo model to study drug-induced cholestasis” (Archives of Toxicology, 2022)
Counter-ions that a name gives are not always drawn. Like-named read-outs stand apart in the source and are kept apart here.

Key:
rat PCLS = system: rat PCLS; parameters: method as in Starokozhko et al. [2017a]; conditions: in the presence of BAs, ref Starokozhko et al. [2017a]; cited from earlier work
mouse PCLS = test: Viability of mouse PCLS by ATP content (ATP bioluminescence, normalized to protein); type: cell-based; conditions: for IC50 / CC50: Mus musculus; for IC 5% (best-fit) / IC 25% (best-fit): Table S3, unit not given; for Enhancement of drug toxicity by addition of the BA mixture: extra sum of squares F-test of fits with vs w/o BA
Description: (§1) In short, freshly prepared PCLS were transferred to 12-well plates (Greiner bio-one GmbH, Austria), one slice per well. Each well was filled with 1.3 mL pre-heated (37 ℃) and oxygenated (80%) Williams Medium E (1X, glutaMAX-1), which had been supplemented with 25 mM D-glucose monohydrate and 50 μg/ml Gentamicin (denoted as WME GG). […] The DMSO concentration used was below 0.5% in the incubation medium, equivalent to DMSO concentrations in solutions prepared by dilution of BA stock solutions with WME GG.
ATP was extracted by homogenization, followed by the centrifugation of the homogenate (16,000g at 4 °C for 5 min). The supernatant was collected, and the pellet was left to dry. An ATP Bioluminescence Assay Kit (Roche Diagnostics, Mannheim, Germany) was used to determine ATP content in the supernatant. The dried pellet was used to determine the total protein content of the PCLS using the Bio-Rad DC Protein Assay (Bio-Rad, Munich, Germany). The obtained ATP values were then normalized for the total protein content of the slice.
A minimum of three mouse livers was used for each experiment, using PCLS in triplicate from each liver. GraphPad Prism 8.4.3 was used to perform statistical analysis, using a Student’s unpaired two-tailed T-test to compare two means, or a one-way ANOVA to compare multiple means. One-way ANOVA was followed by either Tukey’s multiple comparisons test to compare all means within a dataset, or Dunnett’s multiple comparisons test to compare all means with their own control mean. Nonlinear regression analysis was followed by an extra sum of squares F-test to compare two fits. mRNA expression levels are shown as Log2(fold induction) (− ΔΔCt), though the data was statistically analyzed using the cycle threshold (ΔCt) values. Differences between groups were considered significant when p < 0.05.

Bsep (Abcb11) = test: qRT-PCR gene expression in mouse PCLS: Bsep; type: cell-based; conditions: 48 h
Description: In short, freshly prepared PCLS were transferred to 12-well plates (Greiner bio-one GmbH, Austria), one slice per well.
(§2) Three PCLS incubated under a given condition were pooled in a 1.5-mL Rnase-free test tube, snap-frozen in liquid nitrogen, and stored at – 80 °C until analysis. RNA was isolated using a FavorPrep Tissue Total RNA Mini Kit (Favorgen, Vienna, Austria). Subsequently, the RNA yield was quantified using a NanoDrop One instrument (Thermo Fisher Scientific, Massachusetts, USA). Isolated RNA was reverse-transcribed to cDNA using a cDNA synthesis kit (Reverse Transcription System, Promega, Benelux B.V.). The cDNA samples were subsequently loaded in the thermal cycler with a program set to 22 °C for 10 min, 42 °C for 15 min, and 95 °C for 5 min.
(§3) qRT-PCR was used to determine the relative mRNA expression levels for the mouse target genes: Bsep (Abcb11), Mrp2 (Abcc2), Mrp3 (Abcc3), Mrp4 (Abcc4), Ntcp (Slc10a1), Fxr (Nr1h4), Cyp7a1 (Cyp7a1), Collagen type 1a1 (Col1a1), Hsp47 (Serpinh1). Primer sequences of the genes tested are given in Supplementary Table S1. QRT-PCR was performed using, the dye, FastStart Universal SYBR Green Master Mix (Roche Diagnostics Netherlands B.V., Almere, the Netherlands) with the ViiA™ 7 Real-Time PCR System (Applied Biosystems, Bleiswijk, the Netherlands). The first cycle constituted 10 min at 95 °C, followed by 40 cycles of 15 s at 95 °C, 30 s at 60 °C and 30 s at 72 °C, followed by 1 cycle dissociation stage (15 s: 95 °C, 60 °C and 95 °C). A minimum of four mouse livers was used for each experiment, using three PCLS per condition. Samples were measured in duplicates. […] Results are expressed as log2(fold change).

[1] = system: Collagen type 1a1 (Col1a1); test: qRT-PCR gene expression in mouse PCLS: Col1a1; type: cell-based; conditions: 48 h
Description: as §1, §2, §3

Mrp2 (Abcc2) = test: qRT-PCR gene expression in mouse PCLS: Mrp2; type: cell-based; conditions: 48 h, in the presence and absence of BAs
Description: as §1
as §2, with “The cDNA samples were subsequently loaded in the thermal cycler with a program set to 22 °C for 10 min, 42 °C for 15 min, and 95 °C for 5 min.” left out
qRT-PCR was used to determine the relative mRNA expression levels for the mouse target genes: Bsep (Abcb11), Mrp2 (Abcc2), Mrp3 (Abcc3), Mrp4 (Abcc4), Ntcp (Slc10a1), Fxr (Nr1h4), Cyp7a1 (Cyp7a1), Collagen type 1a1 (Col1a1), Hsp47 (Serpinh1). […] Samples were measured in duplicates. […] Results are expressed as log2(fold change).

CN(C)CCCN1c2ccccc2Sc2ccc(Cl)cc21 [CPZ, Chlorpromazine hydrochloride]
Concentration reaching severe toxicity (rat PCLS): 36 µM
IC50 (mouse PCLS; 48 h, read-out: IC 50% (best-fit), Table S3, mouse PCLS, 48 h, w/o BA, unit not printed in table (µM in Fig. 4)): 29.1 µM
IC50 (mouse PCLS; 48 h, read-out: IC 50% (best-fit), Table S3, mouse PCLS, 48 h, with BA, unit not printed in table (µM in Fig. 4)): 21.6 µM
IC50 (mouse PCLS; 48 h, read-out: IC50 (50% loss in viability, ATP content), mouse PCLS, 48 h, one value or range given for with and w/o BA): 22 to 29 µM
CC50 (mouse PCLS; 48 h, read-out: IC50 (50% loss in viability, ATP content), mouse PCLS, 48 h, w/o BA mixture): 29 µM
CC50 (mouse PCLS; 48 h, read-out: IC50 (50% loss in viability, ATP content), mouse PCLS, 48 h, with BA mixture): 22 µM
IC 5% (best-fit) (mouse PCLS; 5% decrease in ATP content, 48 h, w/o BA): 15.4
IC 5% (best-fit) (mouse PCLS; 5% decrease in ATP content, 48 h, with BA): 11.4
IC 25% (best-fit) (mouse PCLS; 25% decrease in ATP content, 48 h, w/o BA): 22.9
IC 25% (best-fit) (mouse PCLS; 25% decrease in ATP content, 48 h, with BA): 17.0
Enhancement of drug toxicity by addition of the BA mixture (mouse PCLS; mouse PCLS, 48 h): enhanced the toxicity of CPZ considerably
Bsep gene expression (Bsep (Abcb11); in the presence and absence of BAs, vs control without drug): reduces
Col1a1 gene expression ([1]; in the absence of BAs, highest concentration of CPZ): significant increase
Col1a1 gene expression ([1]; in the presence of BAs, highest concentration (30 µM CPZ)): significantly increased
Mrp2 gene expression (Mrp2 (Abcc2)): reduces

COc1ccc(Cl)cc1C(=O)NCCc1ccc(S(=O)(=O)NC(=O)NC2CCCCC2)cc1 [GB, Glibenclamide]
Concentration reaching severe toxicity (rat PCLS): 180 µM
IC50 (mouse PCLS; 48 h, read-out: IC50 (50% loss in viability, ATP content)): 70 µM
IC50 (mouse PCLS; read-out: IC 50% (best-fit)): 69.7 µM
IC 5% (best-fit) (mouse PCLS; IC the same with and w/o BA): 37.9
IC 25% (best-fit) (mouse PCLS; IC the same with and w/o BA): 55.5
Enhancement of drug toxicity by addition of the BA mixture (mouse PCLS; mouse PCLS, 48 h): not observed
Bsep gene expression (Bsep (Abcb11); 25 µM GB, when BAs are present): increases
Bsep gene expression (Bsep (Abcb11); 65 μM GB, when BAs are present): decreases Bsep expression significantly
Col1a1 gene expression ([1]; both with and without BAs present): reduced Col1a1 expression in a concentration-dependent manner
Mrp2 gene expression (Mrp2 (Abcc2)): increases the expression of Mrp2
